“And” between values parts separate entries of the source, which are not always exact repeats. Equal values may be shown once.
Experiments:
Assay in all cases: biochemical
MAPK14 = MAPK14 (Homo sapiens, UniProt Q16539)
CHEK2 = CHEK2 (Homo sapiens, UniProt O96017)
PTK2 = PTK2 (Homo sapiens, UniProt Q05397)
FER = FER (Homo sapiens, UniProt P16591)
MAP3K6 = molecular target: T1, MAP3K6 (Homo sapiens, UniProt O95382)
T1 sequence (O95382 1-1288): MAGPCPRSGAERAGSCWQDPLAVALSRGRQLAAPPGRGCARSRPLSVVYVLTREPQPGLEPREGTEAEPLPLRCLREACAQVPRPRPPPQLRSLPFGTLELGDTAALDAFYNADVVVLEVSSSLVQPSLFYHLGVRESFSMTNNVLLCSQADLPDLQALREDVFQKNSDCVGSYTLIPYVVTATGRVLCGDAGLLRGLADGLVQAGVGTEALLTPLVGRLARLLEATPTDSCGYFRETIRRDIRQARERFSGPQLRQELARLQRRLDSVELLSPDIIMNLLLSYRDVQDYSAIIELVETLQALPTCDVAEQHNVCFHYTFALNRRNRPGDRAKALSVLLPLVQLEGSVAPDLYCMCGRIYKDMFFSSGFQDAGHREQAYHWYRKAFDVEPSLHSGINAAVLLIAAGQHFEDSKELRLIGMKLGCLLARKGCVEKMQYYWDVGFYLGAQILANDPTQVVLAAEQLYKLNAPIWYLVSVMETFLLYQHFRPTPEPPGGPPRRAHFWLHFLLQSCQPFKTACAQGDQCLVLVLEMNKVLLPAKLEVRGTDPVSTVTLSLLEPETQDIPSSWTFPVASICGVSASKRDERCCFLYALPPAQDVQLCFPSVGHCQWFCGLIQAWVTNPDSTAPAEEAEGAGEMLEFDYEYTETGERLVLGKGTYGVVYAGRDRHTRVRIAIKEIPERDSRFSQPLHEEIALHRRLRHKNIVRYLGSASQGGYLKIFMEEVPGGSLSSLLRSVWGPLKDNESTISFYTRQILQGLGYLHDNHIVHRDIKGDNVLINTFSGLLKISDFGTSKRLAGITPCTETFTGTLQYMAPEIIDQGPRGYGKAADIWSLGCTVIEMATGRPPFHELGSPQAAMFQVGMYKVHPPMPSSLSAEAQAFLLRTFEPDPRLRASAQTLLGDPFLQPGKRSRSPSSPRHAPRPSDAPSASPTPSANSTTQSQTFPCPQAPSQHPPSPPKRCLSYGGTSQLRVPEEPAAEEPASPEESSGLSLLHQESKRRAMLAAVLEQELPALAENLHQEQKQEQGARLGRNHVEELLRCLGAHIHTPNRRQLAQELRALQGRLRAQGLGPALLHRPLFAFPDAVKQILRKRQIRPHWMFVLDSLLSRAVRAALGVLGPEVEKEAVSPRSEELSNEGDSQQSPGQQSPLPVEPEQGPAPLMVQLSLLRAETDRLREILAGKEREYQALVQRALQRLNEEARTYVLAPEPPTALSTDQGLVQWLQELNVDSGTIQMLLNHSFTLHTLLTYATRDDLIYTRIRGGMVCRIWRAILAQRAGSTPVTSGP

PIM1 = PIM1 (Homo sapiens, UniProt P11309)
GSK3B = GSK3B (Homo sapiens, UniProt P49841)
AAK1 = AAK1 (Homo sapiens, UniProt Q2M2I8)
MAPK1 = MAPK1 (Homo sapiens, UniProt P28482)
NTRK1 = NTRK1 (Homo sapiens, UniProt P04629)
CAMKK2 = CAMKK2 (Homo sapiens, UniProt Q96RR4)
PHKG2 = molecular target: T2, PHKG2 (Homo sapiens, UniProt P15735)
T2 sequence (P15735 1-406): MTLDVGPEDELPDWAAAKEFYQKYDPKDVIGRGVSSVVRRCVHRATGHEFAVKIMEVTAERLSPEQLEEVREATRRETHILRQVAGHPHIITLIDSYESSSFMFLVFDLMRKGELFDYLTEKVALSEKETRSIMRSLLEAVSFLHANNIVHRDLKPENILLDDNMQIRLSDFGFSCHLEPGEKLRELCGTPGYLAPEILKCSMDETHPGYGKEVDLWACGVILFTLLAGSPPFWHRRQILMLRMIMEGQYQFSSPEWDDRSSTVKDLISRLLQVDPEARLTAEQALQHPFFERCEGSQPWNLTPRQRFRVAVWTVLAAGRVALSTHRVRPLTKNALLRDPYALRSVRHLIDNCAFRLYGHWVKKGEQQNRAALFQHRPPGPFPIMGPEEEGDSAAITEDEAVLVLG

ULK3 = molecular target: T3, ULK3 (Homo sapiens, UniProt Q6PHR2)
T3 sequence (Q6PHR2 1-472): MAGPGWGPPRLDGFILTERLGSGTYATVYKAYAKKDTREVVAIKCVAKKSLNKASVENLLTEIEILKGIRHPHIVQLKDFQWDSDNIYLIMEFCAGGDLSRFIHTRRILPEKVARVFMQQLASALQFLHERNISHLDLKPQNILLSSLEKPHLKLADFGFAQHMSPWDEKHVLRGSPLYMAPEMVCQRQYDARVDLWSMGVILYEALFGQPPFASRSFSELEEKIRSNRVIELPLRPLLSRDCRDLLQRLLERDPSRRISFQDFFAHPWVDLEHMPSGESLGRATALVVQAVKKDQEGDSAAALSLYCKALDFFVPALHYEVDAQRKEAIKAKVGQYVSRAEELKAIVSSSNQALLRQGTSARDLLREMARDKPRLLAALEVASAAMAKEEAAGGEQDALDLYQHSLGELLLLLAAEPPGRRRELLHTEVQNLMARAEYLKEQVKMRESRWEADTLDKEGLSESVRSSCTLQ

Sequence of CHEK2 (O96017 whole entry): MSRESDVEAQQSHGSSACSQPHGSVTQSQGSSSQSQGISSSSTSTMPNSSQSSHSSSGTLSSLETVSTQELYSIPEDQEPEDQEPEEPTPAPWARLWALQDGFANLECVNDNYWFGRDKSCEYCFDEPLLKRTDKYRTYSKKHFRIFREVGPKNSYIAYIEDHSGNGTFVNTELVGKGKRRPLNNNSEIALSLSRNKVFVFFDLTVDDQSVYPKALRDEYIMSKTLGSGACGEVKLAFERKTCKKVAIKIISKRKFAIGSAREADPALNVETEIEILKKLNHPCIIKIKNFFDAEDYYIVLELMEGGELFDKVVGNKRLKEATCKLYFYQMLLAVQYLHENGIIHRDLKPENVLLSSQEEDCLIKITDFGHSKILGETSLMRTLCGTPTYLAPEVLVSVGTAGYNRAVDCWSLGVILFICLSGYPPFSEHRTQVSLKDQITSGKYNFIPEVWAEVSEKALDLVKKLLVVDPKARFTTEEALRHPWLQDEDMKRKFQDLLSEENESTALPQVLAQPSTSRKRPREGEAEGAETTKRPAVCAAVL
Sequence of FER (P16591 whole entry): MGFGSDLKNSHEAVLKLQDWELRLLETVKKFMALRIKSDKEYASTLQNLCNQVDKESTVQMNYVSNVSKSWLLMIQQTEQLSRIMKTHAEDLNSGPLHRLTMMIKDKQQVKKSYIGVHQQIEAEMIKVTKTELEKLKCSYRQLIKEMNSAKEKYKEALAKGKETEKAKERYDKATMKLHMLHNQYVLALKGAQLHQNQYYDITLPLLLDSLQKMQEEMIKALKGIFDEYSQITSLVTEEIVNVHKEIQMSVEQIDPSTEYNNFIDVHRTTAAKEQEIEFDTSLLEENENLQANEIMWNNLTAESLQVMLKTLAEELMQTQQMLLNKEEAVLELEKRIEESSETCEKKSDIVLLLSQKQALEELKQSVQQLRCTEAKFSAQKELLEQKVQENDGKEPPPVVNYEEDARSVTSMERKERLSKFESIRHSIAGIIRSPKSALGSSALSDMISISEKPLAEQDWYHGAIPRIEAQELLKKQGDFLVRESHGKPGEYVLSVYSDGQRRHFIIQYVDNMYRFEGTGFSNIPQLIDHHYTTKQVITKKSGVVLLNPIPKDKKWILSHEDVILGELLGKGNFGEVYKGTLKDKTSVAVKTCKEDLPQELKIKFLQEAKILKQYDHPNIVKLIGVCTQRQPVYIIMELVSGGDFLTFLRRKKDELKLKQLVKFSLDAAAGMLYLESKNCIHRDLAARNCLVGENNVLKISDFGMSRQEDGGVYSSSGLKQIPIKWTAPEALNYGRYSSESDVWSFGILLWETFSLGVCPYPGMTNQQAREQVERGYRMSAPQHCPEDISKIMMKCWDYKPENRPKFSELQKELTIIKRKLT
Sequence of AAK1 (Q2M2I8 whole entry): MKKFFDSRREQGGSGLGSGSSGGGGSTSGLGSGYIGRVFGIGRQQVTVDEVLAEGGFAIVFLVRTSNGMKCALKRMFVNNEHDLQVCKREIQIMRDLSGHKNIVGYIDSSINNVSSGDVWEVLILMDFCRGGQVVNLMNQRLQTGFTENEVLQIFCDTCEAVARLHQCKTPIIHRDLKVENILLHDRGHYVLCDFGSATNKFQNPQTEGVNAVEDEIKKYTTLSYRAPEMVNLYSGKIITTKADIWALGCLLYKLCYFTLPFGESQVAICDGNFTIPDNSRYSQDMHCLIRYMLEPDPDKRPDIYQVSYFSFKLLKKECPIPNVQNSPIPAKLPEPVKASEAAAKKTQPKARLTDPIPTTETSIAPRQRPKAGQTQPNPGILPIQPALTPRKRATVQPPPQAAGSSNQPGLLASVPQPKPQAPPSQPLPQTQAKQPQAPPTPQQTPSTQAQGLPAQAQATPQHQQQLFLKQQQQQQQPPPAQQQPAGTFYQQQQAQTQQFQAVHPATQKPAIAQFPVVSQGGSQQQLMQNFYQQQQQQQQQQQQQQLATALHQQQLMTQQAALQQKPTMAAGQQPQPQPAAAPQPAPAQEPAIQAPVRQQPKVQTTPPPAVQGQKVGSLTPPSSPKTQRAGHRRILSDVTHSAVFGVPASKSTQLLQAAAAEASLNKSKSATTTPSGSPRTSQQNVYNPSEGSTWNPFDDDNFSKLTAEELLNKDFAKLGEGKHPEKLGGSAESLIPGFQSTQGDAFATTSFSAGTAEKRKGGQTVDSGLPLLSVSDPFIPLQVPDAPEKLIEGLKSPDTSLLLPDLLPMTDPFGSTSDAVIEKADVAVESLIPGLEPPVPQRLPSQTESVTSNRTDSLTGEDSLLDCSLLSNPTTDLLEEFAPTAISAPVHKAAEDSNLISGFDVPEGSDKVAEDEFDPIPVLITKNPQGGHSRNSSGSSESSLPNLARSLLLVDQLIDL
Sequence of NTRK1 (P04629 whole entry): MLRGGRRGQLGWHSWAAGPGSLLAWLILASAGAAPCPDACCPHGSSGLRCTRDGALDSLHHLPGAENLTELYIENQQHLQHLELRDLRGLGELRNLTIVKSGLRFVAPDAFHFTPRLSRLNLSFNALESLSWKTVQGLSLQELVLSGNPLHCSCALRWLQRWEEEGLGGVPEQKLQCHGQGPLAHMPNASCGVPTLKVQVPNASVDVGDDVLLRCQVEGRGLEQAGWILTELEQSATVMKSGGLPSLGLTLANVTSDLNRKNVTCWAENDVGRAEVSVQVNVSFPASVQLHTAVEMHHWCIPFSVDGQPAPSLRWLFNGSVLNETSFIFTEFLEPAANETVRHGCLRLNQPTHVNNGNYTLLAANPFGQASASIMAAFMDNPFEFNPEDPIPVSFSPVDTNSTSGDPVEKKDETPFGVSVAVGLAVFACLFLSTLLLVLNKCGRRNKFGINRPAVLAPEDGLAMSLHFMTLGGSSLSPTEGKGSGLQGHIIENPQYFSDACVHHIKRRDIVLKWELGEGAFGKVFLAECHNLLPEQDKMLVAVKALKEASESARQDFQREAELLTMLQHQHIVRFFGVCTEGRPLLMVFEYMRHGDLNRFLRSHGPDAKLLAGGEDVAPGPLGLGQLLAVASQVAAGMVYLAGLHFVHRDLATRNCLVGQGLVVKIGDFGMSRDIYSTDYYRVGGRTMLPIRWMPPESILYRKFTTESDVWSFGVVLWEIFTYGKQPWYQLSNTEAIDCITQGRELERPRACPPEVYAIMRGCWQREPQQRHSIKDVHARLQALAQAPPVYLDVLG
Sequence of PIM1 (P11309 whole entry): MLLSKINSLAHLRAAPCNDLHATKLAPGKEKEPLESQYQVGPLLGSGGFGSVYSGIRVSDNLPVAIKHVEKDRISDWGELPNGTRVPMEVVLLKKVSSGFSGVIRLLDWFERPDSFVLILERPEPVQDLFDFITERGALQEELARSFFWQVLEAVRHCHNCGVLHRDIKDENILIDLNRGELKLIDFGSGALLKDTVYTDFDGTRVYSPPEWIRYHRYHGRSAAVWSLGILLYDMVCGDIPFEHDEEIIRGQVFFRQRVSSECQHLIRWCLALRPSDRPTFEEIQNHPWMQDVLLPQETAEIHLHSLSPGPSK
Sequence of MAPK1 (P28482 whole entry): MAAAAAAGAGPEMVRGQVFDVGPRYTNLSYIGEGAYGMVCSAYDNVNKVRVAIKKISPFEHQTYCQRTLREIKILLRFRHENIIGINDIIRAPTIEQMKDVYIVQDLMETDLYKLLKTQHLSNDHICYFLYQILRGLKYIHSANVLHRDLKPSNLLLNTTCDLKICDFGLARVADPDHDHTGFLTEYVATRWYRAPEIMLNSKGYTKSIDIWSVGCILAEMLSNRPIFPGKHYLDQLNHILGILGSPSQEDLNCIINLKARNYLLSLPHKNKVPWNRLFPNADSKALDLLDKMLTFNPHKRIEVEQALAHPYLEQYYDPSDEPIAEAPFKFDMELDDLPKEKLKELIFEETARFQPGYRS
Sequence of PTK2 (Q05397 whole entry): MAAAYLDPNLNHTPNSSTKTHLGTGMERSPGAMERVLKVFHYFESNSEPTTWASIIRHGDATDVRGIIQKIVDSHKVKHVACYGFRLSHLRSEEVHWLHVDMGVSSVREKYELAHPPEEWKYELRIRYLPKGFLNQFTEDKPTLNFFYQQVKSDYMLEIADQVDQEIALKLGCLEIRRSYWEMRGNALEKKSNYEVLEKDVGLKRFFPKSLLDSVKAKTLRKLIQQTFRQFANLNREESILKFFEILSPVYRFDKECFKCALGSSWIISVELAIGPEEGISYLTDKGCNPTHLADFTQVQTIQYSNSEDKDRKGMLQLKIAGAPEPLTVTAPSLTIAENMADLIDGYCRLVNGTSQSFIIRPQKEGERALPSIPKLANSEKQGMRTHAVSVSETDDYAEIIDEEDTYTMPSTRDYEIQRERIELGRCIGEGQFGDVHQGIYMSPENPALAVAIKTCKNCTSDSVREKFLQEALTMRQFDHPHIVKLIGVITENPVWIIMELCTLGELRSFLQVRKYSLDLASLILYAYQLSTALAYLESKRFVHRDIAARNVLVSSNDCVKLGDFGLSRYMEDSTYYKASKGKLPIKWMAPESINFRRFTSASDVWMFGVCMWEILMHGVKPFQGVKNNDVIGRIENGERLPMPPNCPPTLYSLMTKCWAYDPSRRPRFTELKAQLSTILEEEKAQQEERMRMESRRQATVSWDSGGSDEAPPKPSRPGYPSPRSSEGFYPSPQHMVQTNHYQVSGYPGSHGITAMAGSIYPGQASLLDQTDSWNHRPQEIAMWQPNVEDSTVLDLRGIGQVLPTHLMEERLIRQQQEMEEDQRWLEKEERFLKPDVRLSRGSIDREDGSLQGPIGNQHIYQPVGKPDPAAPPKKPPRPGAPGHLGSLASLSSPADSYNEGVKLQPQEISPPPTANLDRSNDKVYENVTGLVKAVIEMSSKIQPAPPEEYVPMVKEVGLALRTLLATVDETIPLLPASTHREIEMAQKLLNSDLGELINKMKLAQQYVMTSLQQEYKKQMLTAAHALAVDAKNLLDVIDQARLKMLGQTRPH

Structure (SMILES) | IC50 (MAPK14) [nM] | IC50 (CHEK2) [nM] | IC50 (PTK2) | IC50 (FER) | IC50 (MAP3K6) | IC50 (PIM1) | IC50 (GSK3B) | IC50 (AAK1) [nM] | IC50 (MAPK1) [nM] | IC50 (NTRK1) | IC50 (CAMKK2) | IC50 (PHKG2) [nM] | IC50 (ULK3)
CN1CCN(c2ccc(Nc3ncc(C#N)c(Nc4ccccc4C(N)=O)n3)cc2)CC1.Cl [TCMDC-134116] | > 20000 | 170 | 44 nM and 58 nM | 220 nM and 210 nM | 1600 nM and 1400 nM | 7200 nM and 6000 nM | 2400 nM and 1500 nM | 190 | > 20000 | 2200 nM and 1500 nM | 360 nM and 380 nM | 2800 | 60 nM and 95 nM
Cl.NCC1(c2nc(-c3ccc(Cl)c(O)c3)c(-c3ccncc3)[nH]2)CCCCC1 [TCMDC-141154] | ≤ 32 | > 20000 | > 20000 nM | > 20000 nM | > 20000 nM | > 20000 nM | 7700 nM | > 20000 | > 20000 | > 20000 nM | > 20000 nM | > 20000 | > 20000 nM
CN(C)CC(O)COc1ccc(Nc2ncc([N+](=O)[O-])c(Nc3ccccc3O)n2)cc1.O=C(O)C(F)(F)F (stereo not drawn) [TCMDC-141399] | > 20000 | 11000 | 90 nM and 97 nM | 930 nM and 810 nM | > 20000 nM | > 20000 nM | 8400 nM and 11000 nM | > 20000 | > 20000 | > 20000 nM | 5300 nM and 5600 nM | > 20000 | > 20000 nM
